Test results as given in patent US20230165242A1, “RODENTICIDAL BAIT AND METHOD OF CONTROLLING TARGET HARMFUL RODENTS” (priority 2020, published 2023).

Columns and labels:
[1] = tested on: warfarin-sensitive male OFA-Sprague-Dawley rats; test: Prothrombin level, Quick's time (bromadiolone / cholecalciferol gavage); type: in vivo, rat
Description: Warfarin-sensitive male OFA-Sprague-Dawley rats (Charles River, L′Arbresles, France) are fed by gavage for 3 consecutive days with a gavage solution containing bromadiolone (LIPHATECH, France) and cholecalciferol (Sigma-Aldrich, France) in a solvent consisting of 95% (v/v) of oil and 5% (v/v) of DMSO. During this period of gavage, the rats are fed with a conventional solid feed and water in unlimited amounts. The concentrations of bromadiolone and cholecalciferol in the gavage solution are 0.1 g/kg (100 ppm) and 7.5 g/kg (7500 ppm) respectively. Each rat receives daily a volume of gavage solution calculated to correspond to 1 mL of gavage solution per kilogram of body weight. The OFA-Sprague-Dawley rats in two control groups are fed by gavage in the same conditions with gavage solutions containing bromadiolone (alone) at a concentration of 100 ppm or cholecalciferol (alone) at a concentration of 7500 ppm, respectively. 24 hours after the last gavage, a volume of blood is taken from each rat by intracardiac puncture and placed in a specimen tube containing sodium citrate. The animals are euthanized after puncture and the plasma is prepared by centrifugation. Quick's time (or clotting time) is evaluated on the plasma supplemented with sodium citrate, then decalcified and recalcified in the presence of calcium thromboplastin. Quick's time is evaluated by means of an optical device for clotting analysis (Option 2plus, Bio Mèrieux®). The results are presented [FIG. 2]. The average Quick's time measured on the plasma from the rats fed by gavage with bromadiolone (bar “B”) is 12.4 seconds (±1.8), the average Quick's time measured on the plasma from the rats fed by gavage with cholecalciferol (bar “C”) is 12.4 seconds (±0.9) and the average Quick's time measured on the plasma from the rats fed by gavage with the composition comprising bromadiolone and cholecalciferol (bar “D”) is 14.1 seconds (±2.7). The differences in values of Quick's time measured between the three groups of rats are not significant. The rats in the group of rats that received the combination of bromadiolone and cholecalciferol coagulate in the same way as the rats in the group of rats that received the gavage solution containing bromadiolone on the one hand and the rats in the group of rats that received the gavage solution containing cholecalciferol on the other hand. Quick's time for rats treated with a control solution formed from oil (95%, v/v) and DMSO (5%, v/v) is (bar “A”) 12.8 seconds (±2.3). Neither the gavage solution containing bromadiolone in combination with cholecalciferol, nor the gavage solution containing bromadiolone alone, nor the gavage solution containing cholecalciferol induces an increase of Quick's time relative to the control. […]

[2] = tested on: warfarin-sensitive male OFA-Sprague-Dawley rats; test: Synergy of bromadiolone and cholecalciferol, gavage, survival; type: in vivo, rat; conditions: gavage 5 consecutive days; bromadiolone 0.1 mg/kg alone, cholecalciferol 7.5 mg/kg alone, or both combined; after 20 days of observation
Description: A group of 10 warfarin-sensitive male OFA-Sprague-Dawley rats (Charles River, L′Arbresles, France), aged 10 weeks and with a body weight between 160 and 180 g, are fed by gavage for 5 consecutive days with a gavage solution containing bromadiolone (LIPHATECH, France) and cholecalciferol (Sigma-Aldrich, France) in a solvent consisting of 95% (v/v) of oil and 5% (v/v) of DMSO. During this period of gavage, the rats are fed with a conventional solid feed and water in unlimited amounts. The rats are fed by gavage with a volume of this gavage solution so as to administer an amount of bromadiolone corresponding to 0.1 mg of bromadiolone per kilogram of body weight of the rat fed by gavage and an amount of cholecalciferol corresponding to 7.5 mg of cholecalciferol per kilogram of body weight of the rat fed by gavage. The rats in two control groups, each consisting of 10 male OFA-Sprague-Dawley rats, are fed by gavage in the same conditions with gavage solutions containing, respectively, bromadiolone alone so as to administer an amount of bromadiolone corresponding to 0.1 mg of bromadiolone per kilogram of body weight of the rat fed by gavage and cholecalciferol alone so as to administer an amount of cholecalciferol corresponding to 7.5 mg of cholecalciferol per kilogram of body weight of the rat fed by gavage. […]

[3] = tested on: warfarin-sensitive male OFA-Sprague-Dawley rats; test: Prothrombin level, Quick's time (difethialone gavage); type: in vivo, rat; conditions: difethialone solution 100 ppm, 1 mL/kg
Experimental: Nine warfarin-sensitive male OFA-Sprague-Dawley rats (Charles River, L′Arbresles, France) are fed by gavage for 3 consecutive days with difethialone (LIPHATECH, France) in solution in a mixture consisting of 90% (v/v) of oil and 10% (v/v) of DMSO. The concentration of difethialone in the gavage solution is 0.1 g/kg (100 ppm). Each rat receives daily a volume of gavage solution calculated to correspond to 1 mL of gavage solution per kilogram of its body weight […]. 24 hours after the last gavage, a volume of blood is taken from each rat by intracardiac puncture and placed in a specimen tube containing sodium citrate. The animals are euthanized after puncture and the plasma is prepared by centrifugation. […] Quick's time (or clotting time) is evaluated on the plasma supplemented with sodium citrate, then decalcified and recalcified in the presence of calcium thromboplastin. Quick's time is evaluated by means of an optical device for clotting analysis (Option 2plus, Bio Mèrieux®). The average Quick's time measured on the plasma from the rats fed by gavage with difethialone is 23.4 seconds (±6.1). For comparison, the average Quick's time of control rats fed by gavage with the solution without difethialone is 17.5 seconds (±2.1). The difference in values of Quick's time of the rats fed by gavage with the difethialone solution and with the control solution without difethialone is not significant.

[4] = tested on: Female Sprague-Dawley rats that are homozygotic carriers of the Y139F mutation in the Vkorc1 gene; test: Synergy of difethialone and cholecalciferol on warfarin-resistant female Sprague-Dawley Y139F rats; type: in vivo, rat; conditions: gavage once a day for 3 days; difethialone 0.125 mg/kg alone, cholecalciferol 7.5 mg/kg alone, or both combined; 22 days of observation
Description: Female Sprague-Dawley rats that are homozygotic carriers of the Y139F mutation in the Vkorc1 gene, aged 10 weeks, are acclimatized for 5 days in the presence of a conventional solid feed and water in unlimited amounts. These female Sprague-Dawley Y139F rats are fed by gavage once a day for 3 consecutive days with a gavage solution containing difethialone (LIPHATECH, France) and cholecalciferol (Sigma-Aldrich, France) in a solvent consisting of 95% (v/v) of oil and 5% (v/v) of DMSO. During this period of gavage, the rats are fed with a conventional solid feed and water in unlimited amounts. The amounts of difethialone and cholecalciferol administered are 0.125 mg per kilogram of body weight of the rat fed by gavage and 7.5 mg per kilogram of body weight of the rat fed by gavage, respectively. The rats in two control groups, each consisting of OFA-Sprague-Dawley […] rats, are fed by gavage in the same conditions with gavage solutions containing, respectively, difethialone alone so as to administer an amount of difethialone corresponding to 0.125 mg per kilogram of body weight of the rat fed by gavage and cholecalciferol alone so as to administer an amount of cholecalciferol corresponding to 7.5 mg per kilogram of body weight of the rat fed by gavage. The percentage of rats surviving gavage is noted daily for 21 days counting from the first day of gavage. […]

[5] = tested on: male Sprague-Dawley rats that have undergone introgression, homozygotic carriers of the Y139F mutation in the Vkorc1 gene; test: Dose/rodenticidal response effect of difethialone on warfarin-resistant male Y139F rats; type: in vivo, rat; conditions: for Mortality, %: gavage, 21 days
Experimental: A gavage solution containing difethialone (LIPHATECH, France) in a solvent consisting of 95% (v/v) of oil and 5% (v/v) of DMSO is administered once a day for 3 consecutive days to male Sprague-Dawley rats that have undergone introgression, which are homozygotic carriers of the Y139F mutation in the Vkorc1 gene. During this period of gavage, the rats are fed with a conventional solid feed and water in unlimited amounts. The doses of difethialone administered to the Sprague-Dawley rats that have undergone introgression, given in Table 9 hereunder, are expressed in micrograms of difethialone administered per kilogram of body weight of the gavage-fed rodent.
The percentage of rats surviving gavage is noted daily for 21 days counting from the first day of gavage. 100% of the Sprague-Dawley rats that had undergone introgression survive gavage for 3 days with 0.125 mg of difethialone per kilogram of body weight per day.

[6] = tested on: warfarin-sensitive male OFA-Sprague-Dawley rats; test: Synergy of difethialone and cholecalciferol on warfarin-sensitive rats, gavage, survival; type: in vivo, rat; conditions: gavage once a day for 3 days; difethialone 125 μg/kg alone or combined with cholecalciferol 7.5 mg/kg; 20 days of observation
Description: A group of warfarin-sensitive male OFA-Sprague-Dawley rats (Charles River, L′Arbresles, France), aged 10 weeks and with a body weight between 160 and 180 g, are fed by gavage once a day for 3 consecutive days with a gavage solution containing difethialone (LIPHATECH, France) and cholecalciferol (Sigma-Aldrich, France) in a solvent consisting of 95% (v/v) of oil and 5% (v/v) of DMSO. During this period of gavage, the rats are fed with a conventional solid feed and water in unlimited amounts. The amounts of difethialone and cholecalciferol administered are 125 μg per kilogram of body weight of the rat fed by gavage and 7.5 mg per kilogram of body weight of the rat fed by gavage, respectively. The rats in two control groups, each consisting of OFA-Sprague-Dawley rats, are fed by gavage in the same conditions with gavage solutions containing difethialone alone (125 μg/kg) or cholecalciferol alone (7.5 mg/kg), respectively. The percentage of rats surviving gavage is recorded daily, for 20 days counting from the first day of gavage. The results presented [FIG. 3] show the variation of the percentage of rodents surviving (in %) as a function of time (t, in days) following the first day of gavage. The rats fed by gavage with the difethialone solution (♦) have 100% survival after 20 days of observation. […]

[7] = tested on: warfarin-sensitive male OFA-Sprague-Dawley rats; test: Dose/rodenticidal response effect of difethialone on warfarin-sensitive rats; type: in vivo, rat; conditions: gavage, 21 days
Experimental: A gavage solution containing difethialone (LIPHATECH, France) in a solvent consisting of 95% (v/v) of oil and 5% (v/v) of DMSO is administered once a day for 3 consecutive days to warfarin-sensitive male OFA-Sprague-Dawley rats (Charles River, L′Arbresles, France), aged 10 weeks and with a body weight between 160 and 180 g. During this period of gavage, the rats are fed with a conventional solid feed and water in unlimited amounts. The doses of difethialone administered to the OFA-Sprague-Dawley rats, given in Table 6 hereunder, are expressed in micrograms of difethialone administered per kilogram of body weight of the gavage-fed rodent.
The percentage of rats surviving gavage is recorded daily for 21 days counting from the first day of gavage.

[8] = in vivo; cited from earlier work
[9] = dose 100 μg/kg once a day for 3 days
[10] = dose 500 μg/kg once a day for 3 days

Q: Which “anticoagulant effect (increase of Quick's time relative to the control)” value ([1]; 3 daily gavages, bromadiolone 100 ppm and/or cholecalciferol 7500 ppm solution, 1 mL/kg) does the source give for `O=c1oc2ccccc2c(O)c1C(CC(O)c1ccc(-c2ccc(Br)cc2)cc1)c1ccccc1` (stereo not shown) [bromadiolone, 3-[3-(4′-bromo[1,1′-biphenyl]-4-yl)-3-hydroxy-1-phenylpropyl]-4-hydroxy-2H-1-benzopyran-2-one] here?
A: not anticoagulants

Q: And the “average Quick's time (clotting time)” value ([1]; plasma 24 hours after last of 3 daily gavages, 1 mL/kg of solution with bromadiolone 100 ppm and/or cholecalciferol 7500 ppm)?
A: 12.4 s

Q: What about the “percentage of rats surviving” value [2] of the same molecule?
A: 100%

Q: For `O=c1sc2ccccc2c(O)c1C1CC(c2ccc(-c3ccc(Br)cc3)cc2)Cc2ccccc21` (stereo not shown) [difethialone, 3-(4′bromobiphenyl-4-yl)-1-(4-hydroxythiocoumarin-3-yl)-1,2,3,4-tetrahydronaphthalene], which “anticoagulant effect (increase in Quick's time relative to the control)” value ([3]; 3 daily gavages) is on record?
A: not anticoagulating

Q: And the haemorrhagic sign ([3]; 3 daily gavages)?
A: No haemorrhagic sign

Q: What about the “average Quick's time (clotting time)” value ([3]; plasma 24 hours after last of 3 daily gavages) of the same molecule?
A: 23.4 s

Q: And the “percentage of rats surviving” value [4]?
A: 100%

Q: And the “Mortality, %” value [5, 9]?
A: 0%

Q: And the “Mortality, %” value ([5]; dose 125 μg/kg once a day for 3 days)?
A: 0%

Q: What about the “Mortality, %” value ([5]; dose 250 μg/kg once a day for 3 days) of the same molecule?
A: 100%

Q: What about the “Mortality, %” value [5, 10] of the same molecule?
A: 100%

Q: What about the rats surviving gavage ([5]; gavage for 3 days with 0.125 mg of difethialone per kilogram of body weight per day) of the same molecule?
A: 100%

Q: What about the “percentage of rats surviving” value [6] of the same molecule?
A: 100%

Q: What about the “Mortality, %” value ([7]; dose 50 μg/kg once a day for 3 days) of the same molecule?
A: 0%

Q: And the “Mortality, %” value [7, 9]?
A: 0%

Q: What about the “Mortality, %” value ([7]; dose 150 μg/kg once a day for 3 days) of the same molecule?
A: 40%

Q: And the “Mortality, %” value ([7]; dose 200 μg/kg once a day for 3 days)?
A: 100%

Q: What about the “Mortality, %” value [7, 10] of the same molecule?
A: 100%

Q: With `C=C1/C(=C\C=C2/CCC[C@]3(C)[C@@H]([C@H](C)CCCC(C)(C)O)CC[C@@H]23)C[C@@H](O)C[C@@H]1O` [Calcitriol, 1,25-dihydroxycholecalciferol] as the molecule, how does the “half-life in the body” value [8] read?
A: ~5 h
